Experimental data taken from paper PMC7774088 (ACS Omega, 2020).

How the values were obtained:
Stp1 [1] = biological target: Stp1 (Staphylococcus aureus, UniProt A0A0H2XF73, Y199A); assay: biochemical
Stp1 [2] = biological target: T1, Stp1 (Staphylococcus aureus, UniProt A0A0H2XF73); assay: fluorescence quenching; type: binding
T1 sequence (A0A0H2XF73 1-247): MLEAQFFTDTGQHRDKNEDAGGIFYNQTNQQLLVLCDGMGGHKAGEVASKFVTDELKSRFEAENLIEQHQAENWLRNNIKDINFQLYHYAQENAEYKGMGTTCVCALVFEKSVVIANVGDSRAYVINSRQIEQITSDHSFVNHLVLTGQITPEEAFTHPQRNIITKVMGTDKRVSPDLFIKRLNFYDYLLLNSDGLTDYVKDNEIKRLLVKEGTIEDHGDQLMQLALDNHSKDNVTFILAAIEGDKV

Stp1 [3] = biological target: T1, Stp1; assay: pNPP phosphatase assay, absorbance […] nm; type: biochemical; conditions: read-out: % inhibition at 32 μg/mL
Stp1 [4] = biological target: Stp1 (Staphylococcus aureus, UniProt A0A0H2XF73, F179A); assay: biochemical
Stp1 [5] = biological target: Stp1 (Staphylococcus aureus, UniProt A0A0H2XF73, P152A); assay: biochemical
Stp1 [6] = biological target: Stp1 (Staphylococcus aureus, UniProt A0A0H2XF73, I164A); assay: biochemical

Which Kd (Stp1 [1]) does the source give for O=C(O[C@@H]1O[C@@H]2COC(=O)c3cc(O)c(O)c(O)c3-c3c(cc(O)c(O)c3O)C(=O)O[C@H]([C@H]1O)[C@@H]2O)c1cc(O)c(O)c(O)c1 [corilagin] here?
The Kd was 2870 nM.

And the Kd (Stp1 [2])?
Its Kd is 1940 nM.

What about the inhibition at 32 µg/mL (Stp1 [3]) of the same molecule?
Its inhibition at 32 µg/mL is > 90%.

And the Kd (Stp1 [4])?
The Kd was 2560 nM.

And the Kd (Stp1 [5])?
Its Kd is 7.25 µM.

And the Kd (Stp1 [6])?
Its Kd is 8.85 µM.
